In the supplement of paper PMC10307832:

Assays:
Test in all cases: relative viability (nuclei count vs DMSO), 5 days (fraction); higher = more cells survive
[1] = compound: C=CCn1c(=O)c2cnc(Nc3ccc(N4CCN(C)CC4)cc3)nc2n1-c1cccc(C(C)(C)O)n1 [Adavosertib] + CC(=O)c1c(C)c2cnc(Nc3ccc(N4CCNCC4)cn3)nc2n(C2CCCC2)c1=O [Palbociclib] (partner 0.5 µM)
How it was run: (§1)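 Relative viability equals treated-well nuclei counts divided by vehicle-well nuclei counts. Counts came from 4× images of lung cancer cell lines grown in 1536-well plates for 5 days after pin-tool dosing on the day after seeding. Dosing used one drug alone or a fixed anchor-drug dose plus five library-drug doses (not always all listed) in √10 steps, and values are medians of duplicate plates.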

Adavosertib + Pemetrexed = compound: C=CCn1c(=O)c2cnc(Nc3ccc(N4CCN(C)CC4)cc3)nc2n1-c1cccc(C(C)(C)O)n1 [Adavosertib] + Nc1nc2[nH]cc(CCc3ccc(C(=O)N[C@@H](CCC(=O)O)C(=O)O)cc3)c2c(=O)[nH]1 [Pemetrexed] (partner 0.2 µM)
How it was run: as §1

Nelarabine + Alpelisib = compound: COc1nc(N)nc2c1ncn2[C@@H]1O[C@H](CO)[C@@H](O)[C@@H]1O [Nelarabine] + Cc1nc(NC(=O)N2CCC[C@H]2C(N)=O)sc1-c1ccnc(C(C)(C)C(F)(F)F)c1 [Alpelisib] (partner 2 µM)
How it was run: as §1

Nelarabine + Decitabine = compound: COc1nc(N)nc2c1ncn2[C@@H]1O[C@H](CO)[C@@H](O)[C@@H]1O [Nelarabine] + Nc1ncn([C@H]2C[C@H](O)[C@@H](CO)O2)c(=O)n1 [Decitabine] (partner 2 µM)
How it was run: as §1

Cell Line | relative viability ([1]; first compound 0.01 µM) | relative viability ([1]; first compound 0.03162 µM) | relative viability ([1]; first compound 0.1 µM) | relative viability ([1]; first compound 0.3162 µM) | relative viability (Adavosertib + Pemetrexed; first compound 0.01 µM) | relative viability (Adavosertib + Pemetrexed; first compound 0.03162 µM) | relative viability (Adavosertib + Pemetrexed; first compound 0.1 µM) | relative viability (Adavosertib + Pemetrexed; first compound 0.3162 µM) | relative viability (Nelarabine + Alpelisib; first compound 0.01 µM) | relative viability (Nelarabine + Alpelisib; first compound 0.03162 µM) | relative viability (Nelarabine + Alpelisib; first compound 0.1 µM) | relative viability (Nelarabine + Alpelisib; first compound 0.3162 µM) | relative viability (Nelarabine + Alpelisib; first compound 1 µM) | relative viability (Nelarabine + Decitabine; first compound 0.01 µM) | relative viability (Nelarabine + Decitabine; first compound 0.03162 µM) | relative viability (Nelarabine + Decitabine; first compound 0.1 µM) | relative viability (Nelarabine + Decitabine; first compound 0.3162 µM) | relative viability (Nelarabine + Decitabine; first compound 1 µM)
NCI-H661 | 0.424 | 0.449 | 0.464 | 0.451 | 0.915 | 0.834 | 0.74 | 0.415 | 0.497 | 0.834 | 0.701 | 0.772 | 0.455 | 0.625 | 0.614 | 0.599 | 0.628 | 0.515
HARA | 0.21 | 0.271 | 0.349 | 0.265 | 0.244 | 0.22 | 0.229 | 0.191 | 0.925 | 0.737 | 0.768 | 1.09 | 0.806 | 0.436 | 0.577 | 0.442 | 0.668 | 0.539
NCI-H1437 | 0.333 | 0.313 | 0.305 | 0.35 | 0.328 | 0.281 | 0.309 | 0.229 | 1.17 | 0.918 | 0.945 | 1.13 | 1.03 | 0.627 | 0.651 | 0.568 | 0.634 | 0.557
201T | 0.336 | 0.356 | 0.364 | 0.367 | 0.319 | 0.343 | 0.325 | 0.281 | 1.06 | 1.02 | 0.968 | 1.03 | 1 | 0.869 | 0.871 | 0.837 | 0.896 | 0.829
LC-2-ad | 0.535 | 0.467 | 0.55 | 0.519 | 0.288 | 0.276 | 0.302 | 0.277 | 0.959 | 0.825 | 0.937 | 0.734 | 0.928 | 0.904 | 0.865 | 0.757 | 0.932 | 0.73
NCI-H441 | 0.234 | 0.25 | 0.241 | 0.197 | 0.235 | 0.265 | 0.275 | 0.225 | 0.974 | 0.675 | 0.704 | 0.921 | 0.986 | 0.214 | 0.222 | 0.23 | 0.231 | 0.22
